According to ChEMBL document CHEMBL1201862, “PubChem BioAssay data set” (2004):
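1) Cells in 96-well plates. 2) Compound, 48 h, 5 concentrations. 3) Linear interpolation between surrounding doses. 4) Unreached endpoint = highest concentration. The concentration for 50% growth inhibition is given as GI50.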 Activity calls are given as the source filed them. Cut-off read from the data, not from the text of the source: active = GI50 up to about 1.1 µM and inactive = higher.

Key:
Assay in all cases: NCI anticancer screen, dose series, 48 h
NCI-H23 = tested on: NCI-H23
HOP-92 = tested on: HOP-92
NCI-H460 = tested on: NCI-H460
Malme-3M = tested on: Malme-3M
ACHN = tested on: ACHN
K562 = tested on: K562
SF-268 = tested on: SF-268
COLO 205 = tested on: COLO 205
M14 = tested on: M14
A498 = tested on: A498
KM12 = tested on: KM12
SF-295 = tested on: SF-295
RXF 393 = tested on: RXF 393
HOP-18 = tested on: HOP-18
SK-MEL-5 = tested on: SK-MEL-5
TK-10 = tested on: TK-10
786-0 = tested on: 786-0
SK-MEL-2 = tested on: SK-MEL-2
SNB-19 = tested on: SNB-19
KM-20L2 = tested on: KM-20L2
U-251 = tested on: U-251
UACC-62 = tested on: UACC-62
M19-MEL = tested on: M19-MEL
SK-MEL-28 = tested on: SK-MEL-28
XF498 = tested on: XF498
SK-OV-3 = tested on: SK-OV-3
HCT-15 = tested on: HCT-15
HCC 2998 = tested on: HCC 2998
SN12C = tested on: SN12C
OVCAR-4 = tested on: OVCAR-4
SF-539 = tested on: SF-539
SNB-75 = tested on: SNB-75
UACC-257 = tested on: UACC-257
RPMI-8226 = tested on: RPMI-8226
LOX IMVI = tested on: LOX IMVI
CAKI-1 = tested on: CAKI-1
HL-60 = tested on: HL-60
OVCAR-3 = tested on: OVCAR-3
DLD-1 = tested on: DLD-1
NCI-H226 = tested on: NCI-H226
HT-29 = tested on: HT-29
OVCAR-5 = tested on: OVCAR-5
A549 = tested on: A549
CCRF-CEM = tested on: CCRF-CEM
UO-31 = tested on: UO-31
OVCAR-8 = tested on: OVCAR-8
NCI-H522 = tested on: NCI-H522
DMS-273 = tested on: DMS-273
SW-620 = tested on: SW-620
LXFL 529 = tested on: LXFL 529
IGROV-1 = tested on: IGROV-1
MOLT-4 = tested on: MOLT-4
EKVX = tested on: EKVX
HCT-116 = tested on: HCT-116
SNB-78 = tested on: SNB-78
DMS-114 = tested on: DMS-114
HOP-62 = tested on: HOP-62
SR = tested on: SR
DU-145 = tested on: DU-145

Measured: GI50

CN(CC(=O)O)S(=O)(=O)c1ccc(Cl)cc1
> 100 µM: HCT-15
inactive: NCI-H23 > 100 µM | HOP-92 > 100 µM | NCI-H460 > 100 µM | Malme-3M > 100 µM | ACHN > 100 µM | K562 > 100 µM | SF-268 > 100 µM | COLO 205 > 100 µM | M14 > 100 µM | A498 > 100 µM | KM12 > 100 µM | SF-295 > 100 µM | RXF 393 > 100 µM | HOP-18 > 100 µM | SK-MEL-5 > 100 µM | TK-10 > 100 µM | 786-0 > 100 µM | SK-MEL-2 > 100 µM | SNB-19 > 100 µM | KM-20L2 > 100 µM | U-251 > 100 µM | UACC-62 > 100 µM | M19-MEL > 100 µM | SK-MEL-28 > 100 µM | XF498 > 100 µM | SK-OV-3 > 100 µM | HCC 2998 > 100 µM | SN12C > 100 µM | OVCAR-4 > 100 µM | SF-539 > 100 µM | SNB-75 > 100 µM | UACC-257 > 100 µM | RPMI-8226 > 100 µM | LOX IMVI > 100 µM | CAKI-1 > 100 µM | HL-60 > 100 µM | OVCAR-3 > 100 µM | DLD-1 > 100 µM | NCI-H226 > 100 µM | HT-29 > 100 µM | OVCAR-5 > 100 µM | A549 > 100 µM | CCRF-CEM > 100 µM | UO-31 > 100 µM | OVCAR-8 > 100 µM | NCI-H522 > 100 µM | DMS-273 > 100 µM | SW-620 > 100 µM | LXFL 529 > 100 µM | IGROV-1 > 100 µM | MOLT-4 > 100 µM | EKVX > 100 µM

CNC(=S)N(C)C(=S)Nn1c(=O)c(C)nn(C)c1=S
> 100 µM: HCT-15
inactive: NCI-H23 > 100 µM | HOP-92 > 100 µM | NCI-H460 > 100 µM | ACHN > 100 µM | HCT-116 > 100 µM | K562 > 100 µM | SF-268 > 100 µM | COLO 205 > 100 µM | M14 > 100 µM | A498 > 100 µM | KM12 > 100 µM | SF-295 > 100 µM | SNB-78 > 100 µM | RXF 393 > 100 µM | HOP-18 > 100 µM | SK-MEL-5 > 100 µM | 786-0 > 100 µM | SNB-19 > 100 µM | KM-20L2 > 100 µM | U-251 > 100 µM | DMS-114 > 100 µM | HOP-62 > 100 µM | UACC-62 > 100 µM | M19-MEL > 100 µM | SK-MEL-28 > 100 µM | SN12C > 100 µM | OVCAR-4 > 100 µM | SF-539 > 100 µM | SNB-75 > 100 µM | UACC-257 > 100 µM | RPMI-8226 > 100 µM | LOX IMVI > 100 µM | HL-60 > 100 µM | DLD-1 > 100 µM | NCI-H226 > 100 µM | HT-29 > 100 µM | OVCAR-5 > 100 µM | A549 > 100 µM | CCRF-CEM > 100 µM | OVCAR-8 > 100 µM | NCI-H522 > 100 µM | DMS-273 > 100 µM | SW-620 > 100 µM | LXFL 529 > 100 µM | IGROV-1 > 100 µM | MOLT-4 > 100 µM | SR > 100 µM | EKVX > 100 µM

O=CN/C=C/c1ccccc1O
> 100 µM: HCT-15
inactive: NCI-H23 > 100 µM | HOP-92 > 100 µM | NCI-H460 > 100 µM | Malme-3M > 100 µM | ACHN > 100 µM | HCT-116 > 100 µM | K562 > 31.6 µM | SF-268 > 79.8 µM | COLO 205 > 100 µM | M14 > 100 µM | A498 > 100 µM | KM12 > 100 µM | SF-295 > 100 µM | DU-145 > 100 µM | SNB-78 > 100 µM | RXF 393 > 100 µM | HOP-18 > 100 µM | SK-MEL-5 > 100 µM | TK-10 > 100 µM | 786-0 > 100 µM | SK-MEL-2 > 100 µM | SNB-19 > 100 µM | KM-20L2 > 100 µM | U-251 > 100 µM | DMS-114 > 100 µM | HOP-62 > 100 µM | UACC-62 > 100 µM | M19-MEL > 100 µM | SK-MEL-28 > 100 µM | SK-OV-3 > 100 µM | HCC 2998 > 100 µM | SN12C > 100 µM | OVCAR-4 > 100 µM | SF-539 > 100 µM | SNB-75 > 100 µM | UACC-257 > 100 µM | RPMI-8226 > 100 µM | LOX IMVI > 100 µM | CAKI-1 > 100 µM | HL-60 > 86.7 µM | OVCAR-3 > 100 µM | DLD-1 > 100 µM | NCI-H226 > 100 µM | HT-29 > 100 µM | OVCAR-5 > 100 µM | A549 > 100 µM | CCRF-CEM > 100 µM | UO-31 > 100 µM | OVCAR-8 > 100 µM | NCI-H522 > 100 µM | DMS-273 > 100 µM | SW-620 > 100 µM | LXFL 529 > 100 µM | IGROV-1 > 100 µM | MOLT-4 > 100 µM | SR > 100 µM | EKVX > 100 µM
